Reference: patent US12029771B2, “Neem for treatment of RLS” (priority 2018, dated 2024)

Test system: symptoms of restless legs syndrome (RLS)
Test: Treatment of RLS patient, Case No. 1
Type: in vivo, human
Conditions: L-Dopa treatment before neem

SMILES: N[C@@H](Cc1ccc(O)c(O)c1)C(=O)O [L-Dopa]
- symptoms of RLS under exposure to L-Dopa: did not completely cease
